One experiment deals with HL-60. Nature of the experiment: In vitro antiproliferative activity against human promyelocytic (HL-60) cells. The experiment is classed as functional, cell-based.
Experiment [1] is filed under the species Cavia porcellus. Nature of the experiment: Phototoxicity (50 mg cm e-2) was evaluated; No phototoxicity. The experiment is classed as functional, organism-based.
Another experiment relates to HeLa. Nature of the experiment: In vitro antiproliferative activity against human cervix adenocarcinoma (HeLa) cells. The experiment is classed as functional, cell-based.
Experiment [2] has as its system Cavia porcellus. Kind of experiment: Compound was evaluated for the erythema formation; +++ means severe erythema with edema. The experiment is classed as functional, organism-based.
The species entered for experiment [3] is Cavia porcellus. Kind of experiment: Phototoxicity (10 mg/cm**2) was evaluated; highly toxic. The experiment is classed as functional, organism-based.

Active and inactive are the calls of the source. The rule behind the calls is not given here.

A word on the IC50: it is the midpoint of a concentration-inhibition curve. A low value points to greater potency. For the compound `Cc1cc(=O)oc2c1c(OCCCN(C)C)cc1oc3ccccc3c12`, the IC50 in the experiment on HL-60 stood at 0.52 µM; in the experiment with HeLa, 1.12 µM. Besides, in the experiment filed under Cavia porcellus [1], the Phototoxicity result is “No phototoxicity”.
The matching figures for `COc1cc2oc3ccccc3c2c2oc(=O)cc(C)c12`: > 20 µM, > 20 µM and “No phototoxicity”.
The matching figures for `Cc1cc(=O)oc2c1c(O)cc1oc3ccccc3c12`: 6.95 µM, > 20 µM and “No phototoxicity”.
Take `COc1c2occc2cc2ccc(=O)oc12` [METHOXSALEN]: the Erythema formation entry in the experiment with Cavia porcellus [2] was “Active”. For the same compound, in the experiment listed under Cavia porcellus [3], the Phototoxicity entry is “Toxic”. Moreover, the IC50 amounted to 5.4 µM in the experiment on HL-60 and 10 µM in the experiment on HeLa.

These data come from ChEMBL document CHEMBL1132756, “A new benzoangelicin with strong photobiological activity” (Bioorg Med Chem Lett, 2000).
